Data: publication PMC13081163, “Discovery of a novel Nrf2 activator that modulates mitochondrial function in neurons by regulating DHRS3-Nrf2 interaction after ischemic stroke” (Theranostics, 2026)

Tests used:
[1] = biological target: Keap1 BTB domain fragment (48-149) (Homo sapiens, UniProt Q14145); assay: SPR binding to truncated Keap1 (48-149)
Method: (§1) The binding affinity of Cpd.51 or Oma to Keap1 proteins were measured using a Biacore T200. The overall experimental procedures were based on previous reports, [28]. Human recombinant Keap1 proteins or truncated form of Keap1 (residues 48-180 and residues 48-149) were captured on a CM5 chip by a standard amine coupling procedure. Binding sensorgrams were recorded by injecting various concentrations of Cpd.51 over the immobilized proteins surface. The dissociation constant was obtained by globally fitting the data (to the 1:1 Langmuir binding model using the Biacore Insight evaluation software (Cytiva, Marlborough, MA, USA). Affinity tests for Cpd.51 and DHRS3 were also performed using the aforementioned method.

[2] = Metabolite identification in human liver microsomes; assay type: in vitro ADME
Method: In vitro identification of metabolites was performed by incubating Cpd.51 (parent compound, final concentration 10 µM) with human liver microsomes (final protein concentration, 1 mg/mL) at 37 °C in a 100 mM potassium phosphate buffer containing 5 mM MgCl2. Samples were quenched with methanol and analyzed using a Waters G2-XS Q-Tof UPLC-MS system employing positive-ion and negative-ion electrospray ionization. The LC-MS extract ion chromatograms to identify the major putative metabolites. MS/MS spectra of Cpd.51 and its metabolites were acquired during both positive-ion and negative-ion electrospray. The potential chemical structures of the metabolites were inferred from their MS/MS spectra and retention times. Metabolic pathways of Cpd.51 in human liver microsomes were subsequently proposed. […]
The objective of this study is to identify major metabolites of Cpd.51 generated in human […]
In vitro metabolites identification was conducted after incubating Cpd.51 (parent compound, final concentration 10 µM) with human liver microsomes (final protein concentration, 1 mg/mL) at 37 °C in 100 mM potassium phosphate buffer containing 5 mM MgCl2 in the presence of NADPH or without NADPH. The samples taken at 0 minute (min) and 5 min were quenched by methanol and analyzed using Waters G2-XS Q-Tof UPLC-MS system with positive-ion and negative-ion electrospray ionization. […]

[3] = Microsomal metabolic stability, human; assay type: in vitro ADME; settings: human liver microsomes
Method: The liver microsomal incubation system comprised human, dog, or rat liver microsomal protein (0.75 mg/mL), nicotinamide adenine dinucleotide phosphate (NADPH) generation system, potassium phosphate buffer (0.1 M, pH 7.4), substrate, and inhibitor. The assay was conducted by first preparing a potassium phosphate buffer. Compounds and liver microsomes were then diluted and pre-incubated at 37 °C before initiating the reaction with NADPH. Aliquots were quenched with acetonitrile containing internal standard at specified time points. After sample processing (shaking and centrifugation), the supernatants were analyzed by LC-MS/MS to determine metabolic stability.

[4] = biological target: T1, Keap1 BTB domain (48-180) (Homo sapiens, UniProt Q14145); assay: SPR binding to truncated Keap1 (48-180); settings: read-out: KD, Keap1 BTB domain fragment
T1 construct: truncated form of Keap1 (residues 48-180 and residues 48-149)
T1 sequence (Q14145 48-180): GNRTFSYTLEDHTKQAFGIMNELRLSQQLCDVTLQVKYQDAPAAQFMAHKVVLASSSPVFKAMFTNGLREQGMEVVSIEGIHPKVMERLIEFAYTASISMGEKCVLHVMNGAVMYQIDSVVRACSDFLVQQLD
Method: as §1

[5] = test system: ARE-luciferase reporter (Nrf2 activation), Hek-293T cells; assay: ARE-luciferase reporter gene assay; assay type: cell-based; settings: Homo sapiens
Method: The Hek-293T cells were cultured in 96-well plates 24 h before transfection with ARE-luciferase reporter plasmid (11548ES03, Yeasen, China) for 48 h according to the manufacturer's instructions. The Firefly luciferase activities was carried out 12 h after the drug treatment, as described by the manufacturer (11412ES81, Yeasen, China).

[6] = test system: SH-SY5Y cells; assay: Cytotoxicity in SH-SY5Y cells, 24 h incubation; assay type: cell-based; settings: Homo sapiens

Keap1 BTB domain fragment (48-149), sequence (Q14145 48-149): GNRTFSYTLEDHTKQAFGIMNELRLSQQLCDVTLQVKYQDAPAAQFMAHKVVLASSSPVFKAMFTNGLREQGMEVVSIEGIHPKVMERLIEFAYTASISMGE

CC1(C)CCC2(C(=O)NO)CCC3(C)C(C(=O)C=C4C5(C)C=C(C#N)C(=O)C(C)(C)C5CCC43C)C2C1 (stereo not shown) [Cpd.51]
Kd [1]: 67.2 µM
number of major metabolites ([2]; human liver microsomes): 10
Relative UV abundance (5 min), relative to parent in T0 sample ([2]; human liver microsomes with NADPH, 10 µM Cpd.51, 5 min, UV 250-260 nm): 54.06%
Remainig (%, t = 60 min) [3]: 28.9%
CLint scaled ([3]; human, pH 7.4): 34 mL/min/kg
half-life ([3]; human, pH 7.4): 36.7 min
Kd [4]: 31.3 µM
EC50 ([5]; HEK-293T, cells transfected with NC-OE control plasmid): 0.0567 µM
EC50 ([5]; Hek-293T cells, 12 h after drug treatment): 0.0481 µM
IC50 [6]: 1.98 µM
